According to ChEMBL document CHEMBL4351032, “Design, synthesis, and biological evaluation of 4-((6,7-dimethoxyquinoline-4-yl)oxy)aniline derivatives as FLT3 inhibitors for the treatment of acute myeloid leukemia” (Bioorg Med Chem Lett, 2019):

Tests used:
HL-60 [1] = assay: Antiproliferative activity against human HL60 cells harboring wild type FLT3 assessed as inhibition of cell growth incubated for 72 hrs by CCK-8 assay; format: functional, cell-based; conditions: HL-60, 72 h
MV4-11 = assay: Antiproliferative activity against human MV4-11 cells harboring FLT3-ITD assessed as inhibition of cell growth incubated for 72 hrs by CCK-8 assay; format: functional, cell-based; conditions: MV4-11, 72 h
HL-60 [2] = assay: Potency index, ratio of cabozantinib IC50 to compound IC50 for human HL60 cells incubated for 72 hrs by CCK-8 assay; format: functional
[3] = target: T1, Receptor-type tyrosine-protein kinase FLT3 (Homo sapiens, UniProt P36888); assay: Inhibition of FLT3 (unknown origin) using peptide as substrate preincubated with enzyme for 10 mins followed by substrate addition further incubated for 1 hr by mobility shift assay
T1 sequence (P36888 whole entry): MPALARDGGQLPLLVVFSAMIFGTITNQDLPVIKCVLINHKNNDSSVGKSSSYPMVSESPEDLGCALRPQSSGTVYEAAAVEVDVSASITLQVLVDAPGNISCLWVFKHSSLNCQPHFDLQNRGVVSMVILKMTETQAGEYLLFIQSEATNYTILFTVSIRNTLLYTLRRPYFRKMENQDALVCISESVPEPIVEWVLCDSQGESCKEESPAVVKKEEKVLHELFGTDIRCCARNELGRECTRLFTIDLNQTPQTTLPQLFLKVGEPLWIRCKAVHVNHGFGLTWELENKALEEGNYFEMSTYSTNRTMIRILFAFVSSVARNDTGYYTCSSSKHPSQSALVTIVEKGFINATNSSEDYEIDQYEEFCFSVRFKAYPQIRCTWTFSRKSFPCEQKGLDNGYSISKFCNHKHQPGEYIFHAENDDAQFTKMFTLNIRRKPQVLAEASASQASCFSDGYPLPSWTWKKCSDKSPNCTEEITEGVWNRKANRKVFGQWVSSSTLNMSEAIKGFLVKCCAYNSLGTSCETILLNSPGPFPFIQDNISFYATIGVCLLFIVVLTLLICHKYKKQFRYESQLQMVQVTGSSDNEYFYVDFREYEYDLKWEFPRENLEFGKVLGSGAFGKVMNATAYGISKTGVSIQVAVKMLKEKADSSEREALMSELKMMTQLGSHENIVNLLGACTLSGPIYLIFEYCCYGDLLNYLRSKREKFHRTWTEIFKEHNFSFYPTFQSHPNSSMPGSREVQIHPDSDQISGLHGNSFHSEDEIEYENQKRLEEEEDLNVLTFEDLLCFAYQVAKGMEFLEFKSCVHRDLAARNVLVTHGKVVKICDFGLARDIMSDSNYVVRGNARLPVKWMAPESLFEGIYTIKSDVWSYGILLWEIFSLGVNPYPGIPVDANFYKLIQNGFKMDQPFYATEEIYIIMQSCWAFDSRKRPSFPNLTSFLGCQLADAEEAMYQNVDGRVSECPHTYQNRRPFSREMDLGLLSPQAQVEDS

[4] = target: T1, Receptor-type tyrosine-protein kinase FLT3; assay: Inhibition of FLT3 (unknown origin)

Row | SMILES | IC50 (HL-60 [1]) [µM] | IC50 (MV4-11) [µM] | IC50 [3] [µM] | IC50 [4] [µM] | Ratio IC50 (HL-60 [2])
1 | COc1cc2nccc(Oc3ccc(N/C(=N/c4ccccc4)C(F)(F)F)cc3)c2cc1OC | 44.6 |  |  |  | 
2 | COc1cc2nccc(Oc3ccc(N/C(=N/c4ccc(OC(F)(F)F)cc4)C(F)(F)F)cc3)c2cc1OC | 32.7 |  |  |  | 
3 | COc1cc2nccc(Oc3ccc(NC(=O)N/N=C/c4cn(-c5cccc(F)c5)nn4)cc3)c2cc1OC | 8.91 | 5.8 | 0.384 |  | 2.52
4 | COc1cc2nccc(Oc3ccc(N/C(=N/c4ccc(C)cc4)C(F)(F)F)cc3)c2cc1OC | 46.2 |  |  |  | 
5 | COc1cccc(-n2cc(/C=N/NC(=O)Nc3ccc(Oc4ccnc5cc(OC)c(OC)cc45)cc3)nn2)c1 | 18.8 | 13.8 | > 1 |  | 
6 | COc1cc2nccc(Oc3ccc(NC(=O)N/N=C/c4cn(-c5ccccc5OC)nn4)cc3)c2cc1OC | 14.2 | 8.29 | 0.312 |  | 
7 | COc1cc2c(Oc3ccc(NC(=O)c4nn(-c5ccccc5)c(=O)cc4C)cc3F)ccnc2cc1OCCCN1CCOCC1 |  |  |  | 0.00928 | 
8 | COc1cc2nccc(Oc3ccc(NC(=O)N/N=C/c4cn(-c5cccc(Cl)c5)nn4)cc3)c2cc1OC | 21.1 | 13.4 | > 1 |  | 
9 | COc1cc2nccc(Oc3ccc(NC(=O)N/N=C/c4cn(-c5ccc(F)cc5)nn4)cc3)c2cc1OC | 21.7 | 21.4 |  |  | 
10 | COc1cc2nccc(Oc3ccc(N/C(=N/c4cccc(Cl)c4)C(F)(F)F)cc3)c2cc1OC | > 50 |  |  |  | 

The next lines start with results.

Row | IC50 (HL-60 [1]) [µM] | IC50 (MV4-11) [µM] | IC50 [3] [µM] | IC50 [4] [µM] | SMILES | Ratio IC50 (HL-60 [2])
11 | > 50 | 48.4 |  |  | COc1cc2nccc(Oc3ccc(NC(=O)N/N=C/c4cn(-c5ccccc5Cl)nn4)cc3)c2cc1OC | 
12 | > 50 |  |  |  | COc1cc2nccc(Oc3ccc(N/C(=N/c4ccc([N+](=O)[O-])cc4)C(F)(F)F)cc3)c2cc1OC | 
13 | > 50 |  |  |  | COc1cc2nccc(Oc3ccc(N/C(=N/c4cccc(C(F)(F)F)c4)C(F)(F)F)cc3)c2cc1OC | 
14 | > 50 |  |  |  | COc1cc2nccc(Oc3ccc(N/C(=N/c4ccc(Cl)c(Cl)c4)C(F)(F)F)cc3)c2cc1OC | 
15 | 16.4 | 13.6 | > 1 |  | COc1cc2nccc(Oc3ccc(NC(=O)N/N=C/c4cn(-c5ccccc5F)nn4)cc3)c2cc1OC | 
16 | 22.5 | 15.2 |  |  | COc1cc2nccc(Oc3ccc(NC(=O)C4(C(=O)Nc5ccc(F)cc5)CC4)cc3)c2cc1OC [CABOZANTINIB] | 
17 | > 50 | 49.1 |  |  | COc1cc2nccc(Oc3ccc(NC(=O)N/N=C/c4cn(-c5cccc(C(F)(F)F)c5)nn4)cc3)c2cc1OC | 
18 | 25.7 | 19.3 |  |  | COc1cc2nccc(Oc3ccc(NC(=O)N/N=C/c4cn(-c5cccc(C)c5)nn4)cc3)c2cc1OC | 
19 | 48.9 |  |  |  | COc1cc2nccc(Oc3ccc(N/C(=N/c4ccc(F)cc4)C(F)(F)F)cc3)c2cc1OC | 
20 | > 50 | > 50 |  |  | COc1cc2nccc(Oc3ccc(NC(=O)N/N=C/c4cn(-c5ccccc5Br)nn4)cc3)c2cc1OC | 
21 | 36.2 |  |  |  | COc1ccc(/N=C(/Nc2ccc(Oc3ccnc4cc(OC)c(OC)cc34)cc2)C(F)(F)F)cc1 | 
22 | 19.3 | 16.3 |  |  | COc1ccc(-n2cc(/C=N/NC(=O)Nc3ccc(Oc4ccnc5cc(OC)c(OC)cc45)cc3)nn2)cc1 | 
23 | > 50 |  |  |  | COc1cc2nccc(Oc3ccc(N/C(=N/c4ccc(Cl)c(C(F)(F)F)c4)C(F)(F)F)cc3)c2cc1OC | 
24 | 41.3 | 38.7 |  |  | COc1cc2nccc(Oc3ccc(NC(=O)N/N=C/c4cn(-c5ccccc5)nn4)cc3)c2cc1OC | 
